From patent publication US20230218726A1, “TREATMENT OF VIRAL CONJUNCTIVITIS” (Okogen, Inc., priority 2020, published 2023)

Experiments:
[1] = test system: epidemic keratoconjunctivitis (EKC); conditions: eye drops tested clinically; cited from earlier work
[2] = Chromatographic compatibility analyses (cation exchange, size exclusion, BAK method); format: physicochemical; conditions: no interference in cation exchange, size exclusion and BAK chromatography; PBS pH 7.4
Method: A formulation was prepared having 0.03% w/v ranpirnase together with oxymetazoline or brimonidine. The formulations were analyzed by chromatography to verify whether the therapeutic agent interferes with ranpirnase. Several chromatography methods were employed, including cation exchange and size exclusion chromatography, as well as benzalkonium chloride (BAK) analysis.
(§1) For cation exchange chromatography, analysis was performed with the following solutions: diluent (PBS pH 7.4), oxymetazoline HCl (0.5 mg/mL), placebo, and ranpirnase. Oxymetazoline HCl (0.5 mg/mL) solution was prepared in diluent. Both ranpirnase and its placebo were removed from the refrigerator, warmed to room temperature, and vialed into HPLC vials.
as §1, with “size exclusion” for “cation exchange”, “on” for “with”
The benzalkonium chloride (BAK) analysis was performed on the following solutions: diluent (PBS pH 7.4), oxymetazoline HCl (0.05 mg/mL), placebo, and ranpirnase. Oxymetazoline HCl (0.5 mg/mL) solution (10×) was diluted to 0.05 mg/mL in diluent. […]

NFκB = conditions: in vitro study; cited from earlier work

Molecule: Nc1ccn(C[C@@H](CO)OCP(=O)(O)O)c(=O)n1 [cidofovir]
- clinical benefit in epidemic keratoconjunctivitis [1]: no definitive benefit was observed

Molecule: Cc1cc(C(C)(C)C)c(O)c(C)c1CC1=NCCN1 [oxymetazoline, 3-(4,5-dihydro-1H-imidazol-2-ylmethyl)-2,4-dimethyl-6-tert-butyl-phenol]
- compatibility of formulating with ranpirnase in an ophthalmic formulation [2]: compatibility

B1: ranpirnase: amphibian ribonuclease from Rana pipiens oocytes/early embryos, RNase A superfamily, about 12 kD (protein, UniProt P22069 1-104, looked up)
Protein P-30: QDWLTFQKKHITNTRDVDCDNIMSTNLFHCKDKNTFIYSRPEPVKAICKGIIASKNVLTTSEFYLSDCNVTSRPCKYKLKKSTNKFCVTCENQAPVHFVGVGSC
- translocation of NFκB into the nucleus (NFκB): inhibits translocation of NFκB into the nucleus
